Converted amounts (≈) assume the structure as drawn. Read-outs that look alike come from different tables or passages of the source.
Key:
Assay in all cases: In vitro MIC, broth dilution
Assay type in all cases: cell-based
[1] = test system: P. aeruginosa GC 2214; conditions: Pseudomonas aeruginosa, GC2214; P. aeruginosa GC 2214; read-out: MIC
[2] = test system: K. pneumoniae GC 4534; conditions: Klebsiella pneumoniae, GC4534; K. pneumoniae GC 4534; read-out: MIC
[3] = test system: E. coli GC 4560; conditions: Escherichia coli, GC4560; E. coli GC 4560; read-out: MIC
[4] = test system: C. albicans GC 3066; conditions: Candida albicans, GC3066; C. albicans GC 3066; read-out: MIC
[5] = test system: E. coli GC 2203; conditions: Escherichia coli, GC2203; E. coli GC 2203; read-out: MIC
[6] = test system: E. cloacae GC 3783; conditions: Enterobacter cloacae, GC3783; E. cloacae GC 3783; read-out: MIC
[7] = test system: E. coli GC 4559; conditions: Escherichia coli, GC4559; E. coli GC 4559; read-out: MIC
[8] = test system: S. marcescens GC 4077; conditions: Serratia marcescens, GC4077; S. marcescens GC 4077; read-out: MIC
[9] = test system: CNS GC 4537
Outline: (§1)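 MIC = lowest antibiotic concentration preventing visible growth after 18 h at 35 °C, ambient air. Inoculum 5×10^5 CFU/ml; drug tested 64-0.06 μg/ml in Mueller-Hinton II broth following NCCLS guidance.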

[10] = test system: S. aureus GC 1131; conditions: Staphylococcus aureus, GC1131; S. aureus GC 1131; read-out: MIC
Outline: as §1

[11] = test system: E. faecalis GC 2242; conditions: Enterococcus faecalis, GC2242; E. faecalis GC 2242; read-out: MIC
Outline: as §1

[12] = test system: S. aureus GC 4536; conditions: Staphylococcus aureus, GC4536; S. aureus GC 4536; read-out: MIC
Outline: as §1

[13] = test system: E. faecalis GC 4555; conditions: Enterococcus faecalis, GC4555; E. faecalis GC 4555; read-out: MIC
Outline: as §1

[14] = test system: E. faecalis GC 842; conditions: Enterococcus faecalis, GC842; E. faecalis GC 842; read-out: MIC
Outline: as §1

[15] = test system: CNS GC 4538
Outline: as §1

[16] = test system: S. aureus GC 2216; conditions: Staphylococcus aureus, GC2216; S. aureus GC 2216; read-out: MIC
Outline: as §1

[17] = test system: CNS GC 4547
Outline: as §1

[18] = test system: M. morganii GC 4531; conditions: Morganella morganii, GC4531; M. morganii GC 4531; read-out: MIC
[19] = test system: P. aeruginosa GC 4532; conditions: Pseudomonas aeruginosa, GC4532; P. aeruginosa GC 4532; read-out: MIC
[20] = test system: E. coli GC 3226; conditions: Escherichia coli, GC3226; E. coli GC 3226; read-out: MIC

| Compound | MIC [1] [µg/mL] | MIC [2] [µg/mL] | MIC [3] [µg/mL] | MIC [4] [µg/mL] | MIC [5] [µg/mL] | MIC [6] [µg/mL] | MIC [7] [µg/mL] | MIC [8] [µg/mL] | MIC [10] [µg/mL] | MIC [11] [µg/mL] | MIC [12] [µg/mL] | MIC [13] [µg/mL] | MIC [14] [µg/mL] | MIC [16] [µg/mL] | MIC [18] [µg/mL] | MIC [19] [µg/mL] | MIC [20] [µg/mL] | MIC ([9]; CNS GC 4537, read-out: MIC) [µg/mL] | MIC ([15]; CNS GC 4538, read-out: MIC) [µg/mL] | MIC ([17]; CNS GC 4547, read-out: MIC) [µg/mL] | also measured |
| --- | --- | --- | --- | --- | --- | --- | --- | --- | --- | --- | --- | --- | --- | --- | --- | --- | --- | --- | --- | --- | --- |
| COc1ccc(Cn2c(=O)ccn([C@@H]3OC([C@H](O)[C@H](NCCCNC(=O)[C@H](CC(C)C)NC(=O)[C@H](CCCNC(=N)N[N+](=O)[O-])NC(=O)N[C@H](C(=O)OCc4ccccc4)C(C)C)C(=O)O)[C@@H](O)[C@H]3O)c2=O)cc1 (stereo partly drawn) [Example 49, (4S,8S,11S,18S)-18-[(R)-[(3S,4R,5R)-3,4-Dihydroxy-5-(3-(4-methoxybenzyl)-2,4-dioxo-3,4-dihydro-1(2H)-pyrimidinyl)tetrahydro-2-furanyl](hydroxy)methyl]-8-(3-{[(2,2-dioxido-2lambda˜1˜-diazanyl)(imino)methyl]amino}propyl)-11-isobutyl-4-isopropyl-3,6,9,12-tetraoxo-1-phenyl-2-oxa-5,7,10,13,17-pentaazanonadecan-19-oic acid] | 128 (≈ 123 µM) | > 128 | > 128 | 128 (≈ 123 µM) | > 128 | > 128 | > 128 | > 128 | > 128 | 128 (≈ 123 µM) | > 128 | > 128 | 128 (≈ 123 µM) | > 128 | 128 (≈ 123 µM) | 128 (≈ 123 µM) | > 128 |  |  |  | MIC [9]: > 128 µg/mL; MIC [15]: > 128 µg/mL; MIC [17]: > 128 µg/mL |
| COc1ccc(Cn2c(=O)ccn([C@@H]3OC([C@H](O)[C@H](NCCCNC(=O)[C@H](CC(C)C)NC(=O)[C@H](CCCNC(=N)N)NC(=O)N[C@H](C(=O)O)C(C)C)C(=O)O)[C@@H](O)[C@H]3O)c2=O)cc1 (stereo partly drawn) [Example 50, (2S,6S,9S,16S)-6-(3-{[Amino(imino)methyl]amino}propyl)-16-[(R)-[(3S,4R,5R)-3,4-dihydroxy-5-(3-(4-methoxybenzyl)-2,4-dioxo-3,4-dihydro-1(2H)-pyrimidinyl)tetrahydro-2-furanyl](hydroxy)-methyl]-9-isobutyl-2-isopropyl-4,7,10-trioxo-3,5,8,11,15-pentaazaheptadecane-1,17-dioic acid] | 128 (≈ 141 µM) | > 128 | > 128 | 128 (≈ 141 µM) | > 128 | > 128 | > 128 | > 128 | > 128 | 128 (≈ 141 µM) | > 128 | > 128 | > 128 | > 128 | 128 (≈ 141 µM) | 128 (≈ 141 µM) | > 128 | > 128 | > 128 | > 128 |  |
| COc1ccc(Cn2c(=O)ccn([C@@H]3OC([C@H](O)[C@H](NCCCNC(=O)[C@H](CC(C)C)NC(=O)OCc4ccccc4)C(=O)OC(C)(C)C)[C@@H](O)[C@H]3O)c2=O)cc1 (stereo partly drawn) [Example 51, tert-Butyl (5S,12S)-12-[(R)-[(3S,4R,5R)-3,4-dihydroxy-5-(3-(4-methoxybenzyl)-2,4-dioxo-3,4-dihydro-1(2H)-pyrimidinyl)tetrahydro-2-furanyl](hydroxy)methyl]-5-isobutyl-3,6-dioxo-1-phenyl-2-oxa-4,7,11-triazatridecan-13-oate] | 128 (≈ 160 µM) | > 128 | 128 (≈ 160 µM) | 128 (≈ 160 µM) | > 128 | > 128 | > 128 | > 128 | > 128 | 128 (≈ 160 µM) | > 128 | 128 (≈ 160 µM) | 128 (≈ 160 µM) | > 128 | 128 (≈ 160 µM) | 128 (≈ 160 µM) | > 128 | > 128 | 128 (≈ 160 µM) | > 128 |  |
| COc1ccc(Cn2c(=O)ccn([C@@H]3OC([C@H](O)[C@H](NCCCNC(=O)[C@H](CC(C)C)NC(=O)OCc4ccccc4)C(=O)O)[C@@H](O)[C@H]3O)c2=O)cc1 (stereo partly drawn) [Example 52, (5S,12S)-12-[(R)-[(3S,4R,5R)-3,4-Dihydroxy-5-(3-(4-methoxybenzyl)-2,4-dioxo-3,4-dihydro-1(2H)-pyrimidinyl)tetrahydro-2-furanyl](hydroxy)methyl]-5-isobutyl-3,6-dioxo-1-phenyl-2-oxa-4,7,11-triazatridecan-13-oic acid] | 128 (≈ 173 µM) | > 128 | 128 (≈ 173 µM) | 128 (≈ 173 µM) | > 128 | > 128 | > 128 | 128 (≈ 173 µM) | > 128 | 128 (≈ 173 µM) | > 128 | 128 (≈ 173 µM) | 128 (≈ 173 µM) | > 128 | 128 (≈ 173 µM) | 128 (≈ 173 µM) | > 128 | > 128 | > 128 | > 128 |  |
| COc1ccc(Cn2c(=O)ccn([C@@H]3OC([C@H](O)[C@H](NCCCNC(=O)[C@@H](N)CC(C)C)C(=O)O)[C@@H](O)[C@H]3O)c2=O)cc1 (stereo partly drawn) [Example 53, (2S,3R)-2-[(3-{[(2S)-2-Amino-4-methylpentanoyl]amino}propyl)amino]-3-[(3S,4R,5R)-3,4-dihydroxy-5-(3-(4-methoxybenzyl)-2,4-dioxo-3,4-dihydro-1(2H)-pyrimidinyl)tetrahydro-2-furanyl]-3-hydroxypropanoic acid] | 128 (≈ 211 µM) | > 128 | 128 (≈ 211 µM) | 128 (≈ 211 µM) | > 128 | > 128 | > 128 | > 128 | > 128 | 128 (≈ 211 µM) | > 128 | 128 (≈ 211 µM) | 128 (≈ 211 µM) | > 128 | > 128 | 128 (≈ 211 µM) | > 128 | > 128 | > 128 | > 128 |  |
| COc1ccc(Cn2c(=O)ccn([C@@H]3OC([C@H](O)[C@H](NCCCNC(=O)[C@@H](N)CC(C)C)C(=O)OC(C)(C)C)[C@@H](O)[C@H]3O)c2=O)cc1 (stereo partly drawn) [Example 54, tert-Butyl (2S,3R)-2-[(3-{[(2S)-2-amino-4-methylpentanoyl]amino}propyl)amino]-3-[(3S,4R,5R)-3,4-dihydroxy-5-(3-(4-methoxybenzyl)-2,4-dioxo-3,4-dihydro-1(2H)-pyrimidinyl)tetrahydro-2-furanyl]-3-hydroxypropanoate] | 128 (≈ 193 µM) | > 128 | 128 (≈ 193 µM) | > 128 | > 128 | > 128 | > 128 | > 128 | > 128 | 128 (≈ 193 µM) | > 128 | > 128 | 128 (≈ 193 µM) | > 128 | 128 (≈ 193 µM) | > 128 | > 128 | > 128 | > 128 | > 128 |  |
| CC(C)C[C@H](NC(=O)OCc1ccccc1)C(=O)NCCCN[C@H](C(=O)O)[C@@H](O)C1O[C@@H](n2ccc(=O)[nH]c2=O)[C@H](O)[C@@H]1O (stereo partly drawn) [Example 55, (5S,12S)-12-[(R)-[(3S,4R,5R)-5-(2,4-Dioxo-3,4-dihydro-1(2H)-pyrimidinyl)-3,4-dihydroxy-tetrahydro-2-furanyl](hydroxy)methyl]-5-isobutyl-3,6-dioxo-1-phenyl-2-oxa-4,7,11-triazatridecan-13-oic acid] | 128 (≈ 206 µM) | 128 (≈ 206 µM) | 128 (≈ 206 µM) | 128 (≈ 206 µM) | 128 (≈ 206 µM) | 128 (≈ 206 µM) | > 128 | 128 (≈ 206 µM) | > 128 | 128 (≈ 206 µM) | > 128 | 128 (≈ 206 µM) | 128 (≈ 206 µM) | > 128 | 128 (≈ 206 µM) | 128 (≈ 206 µM) | 128 (≈ 206 µM) | > 128 | > 128 | > 128 |  |
